Five compounds from patent US20240010635A1, “NOVEL INDIRUBIN DERIVATIVES HAVING HETEROBICYCLIC MOIETIES AND THE USE THEREOF” (priority 2022, published 2024) can be followed below.

What all share (type): biochemical
One experiment addresses T1, FLT3 WT (Homo sapiens, UniProt P36888).
T1 construct: Recombinant proteins containing the FLT3 and FLT3 (D835Y) domains were purchased from Promega; purchased Promega V4064
T1 sequence (P36888 610-943 limits assumed): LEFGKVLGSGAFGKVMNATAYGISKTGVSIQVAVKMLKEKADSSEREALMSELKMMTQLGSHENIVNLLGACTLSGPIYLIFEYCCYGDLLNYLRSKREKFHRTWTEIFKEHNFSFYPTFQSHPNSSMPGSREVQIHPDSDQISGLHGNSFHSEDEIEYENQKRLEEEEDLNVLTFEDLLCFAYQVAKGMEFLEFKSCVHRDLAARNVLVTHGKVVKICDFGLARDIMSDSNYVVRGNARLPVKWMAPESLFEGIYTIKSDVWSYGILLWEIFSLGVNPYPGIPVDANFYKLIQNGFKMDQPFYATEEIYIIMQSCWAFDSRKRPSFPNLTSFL
The experiment is described as follows: ADP-Glo kinase assay, FLT3 WT. The settings on record: recombinant FLT3, ADP-Glo, 120 min room temperature; read-out: Enzyme activity (IC50, nM) FLT3 WT. Here is the method:
FLT3 activity inhibition was measured by ADP-Glo kinase assay (Promega, cat #V9101). ADP-Glo kinase analysis method is an emission ADP detect method which measures kinase activity by quantification of ADP amount produced during kinase reaction and provides uniform high-throughput screening method.
(§1) Analysis performed in two steps. First, after kinase reaction, ADP-Glo™ reagent of equal volume was added to finish kinase reaction, and then the rest ATP was exhausted. Second, Kinase Detection Reagent was added to convert ADP to ATP and newly synthesized ATP was measured by luciferase/luciferin reaction at the same time. Generated light was measured by using luminometer. The measured luminescence amount can be applied to the ATP→ADP standard conversion curve to confirm the correlation with the ADP concentration.
Recombinant proteins containing the FLT3 and FLT3 (D835Y) domains were purchased from Promega (cat #V4064, cat #V4514), respectively. According to the manufacturer's instructions, optimal enzyme, ATP, and substrate concentration were established using the ADP-Glo™ Kinase Assay (Promega, USA). Kinase reaction buffer 5× (200 mM Tris-HCl, pH 7.5, 100 mM MgCl2, 0.5 mg/ml BSA) was diluted and used, and the diluted compound of the present invention (5×, 1 μl), FLT3 enzyme or FLT3/D835Y enzyme (2.5×, 2 μl) and substrate/ATP mixture (2.5×, 2 μl), were mixed sequentially and reacted at room temperature for 120 minutes. Then, ADP-Glo™ Reagent (5 μl) was added and reacted for 40 min at room temperature. Finally, after adding a reagent for detection (Kinase Detection Reagent, 10 μl), reacting at room temperature for 30 min, and then phosphorylation of substrate peptide was measured by measuring luciferase signal (Integration time 0.5-1 second) using SpectraMax ID5 reader (Molecular Devices LLC., San Jose, CA, USA). IC50 was calculated by nonlinear regression using Prism version 5.01 (GrapghPad).
In general terms: ADP-Glo first removes unused ATP, then detects ADP through luciferase.

The target of the next experiment is T2, RET WT (Homo sapiens, UniProt P07949).
T2 construct: Recombinant proteins containing RET wt, RET (M918T) and RET (V804L) domains were purchased from Promega; purchased Promega V8061
T2 sequence (P07949 724-1016 limits assumed): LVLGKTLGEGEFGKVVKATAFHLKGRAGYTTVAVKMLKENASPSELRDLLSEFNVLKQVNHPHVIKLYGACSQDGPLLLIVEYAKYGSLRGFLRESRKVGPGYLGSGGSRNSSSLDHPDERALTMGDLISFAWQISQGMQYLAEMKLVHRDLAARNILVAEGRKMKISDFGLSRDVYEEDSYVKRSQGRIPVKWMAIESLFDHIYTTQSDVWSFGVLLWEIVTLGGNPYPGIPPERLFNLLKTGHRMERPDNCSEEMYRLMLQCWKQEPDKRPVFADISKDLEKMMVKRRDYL
The experiment is described as follows: ADP-Glo kinase assay, RET WT. Particulars: recombinant RET wt, 120 min room temperature, read-out: Enzyme activity (IC50, nM) RET WT. Here is the method: as §1
(§2) Recombinant proteins containing RET wt, RET (M918T) and RET (V804L) domains were purchased from Promega (cat #V8061, cat #VA7274, cat #V4473), respectively. According to the manufacturer's instructions, optimal enzyme, ATP, and substrate concentration were established using ADP-Glo™ Kinase Assay (Promega, USA). […] Then, ADP-Glo™ Reagent (5 μl) was added and reacted at room temperature for further 40 min. Lastly, Kinase Detection Reagent (10 μl) was added and reacted for 30 min more at room temperature, and then phosphorylation of substrate peptide was measured by measuring luciferase signal (Integration time 0.5-1 second) using SpectraMax ID5 reader (Molecular Devices LLC., San Jose, CA, USA). IC50 was calculated by nonlinear regression using Prism version 5.01 (GrapghPad).

For the next experiment, the target named is T3, RET V804L (Homo sapiens, UniProt P07949, V804L).
T3 construct: Recombinant proteins containing RET wt, RET (M918T) and RET (V804L) domains were purchased from Promega; purchased Promega V4473
T3 sequence (P07949 724-1016 V804L limits assumed): T2 sequence (P07949 724-1016 limits assumed) with V81L
The experiment is described as follows: ADP-Glo kinase assay, RET V804L. The settings on record: recombinant RET (V804L), 120 min room temperature, read-out: Enzyme activity (IC50, nM) RET V804L. Here is the method:
as §1, §2

The next experiment has as its target T4, RET M918T (Homo sapiens, UniProt P07949, M918T).
T4 construct: Recombinant proteins containing RET wt, RET (M918T) and RET (V804L) domains were purchased from Promega; purchased Promega VA7274
T4 sequence (P07949 724-1016 M918T limits assumed): T2 sequence (P07949 724-1016 limits assumed) with M195T
The experiment is described as follows: ADP-Glo kinase assay, RET M918T. The settings on record: recombinant RET (M918T), 120 min room temperature, read-out: Enzyme activity (IC50, nM) RET M918T. Here is the method: as §1, §2

SMILES strings stand for the structures. Substitutions are numbered along the chain they refer to.

Take `O=C(CO/N=C1/C(=C2/C(=O)Nc3ccccc32)Nc2ccccc21)N[C@H]1[C@@H]2CNC[C@@H]21` [Example 16, N-((1R,5S,6s)-3-azabicyclo[3.1.0]hexan-6-yl)-2-(((E)-((Z)-2′-oxo-[2,3′-biindolinylidene]-3-ylidene)amino)oxy)acetamide]: the IC50 (commonly the concentration needed to halve the response being measured) on FLT3 WT was found to be 3.13 nM; at RET WT, 0.873 nM; on RET V804L, 0.472 nM; at RET M918T, 1.19 nM.
Take `O=C1Nc2ccccc2/C1=C1/Nc2ccccc2/C1=N\OCC(=O)N1C[C@H]2C[C@@H]1CN2` [Example 17, (2Z,3E)-3-((2-((1R,4R)-2,5-diazabicyclo[2.2.1]heptan-2-yl)-2-oxoethoxy)imino)-[2,3′-biindolinylidene]-2′-one]: the IC50 at FLT3 WT stood at 4.24 nM; at RET WT, 1.53 nM; on RET V804L, 0.904 nM; at RET M918T it was 1.44 nM.
Take `O=C1Nc2ccc(F)cc2/C1=C1/Nc2ccccc2/C1=N\OCC(=O)N1CC2(CNC2)C1` [Example 18, (2Z,3E)-5′-fluoro-3-((2-oxo-2-(2,6-diazaspiro[3.3]heptan-2-yl)ethoxy)imino)-[2,3′-biindolinylidene]-2′-one]: the IC50 on FLT3 WT came to 2.15 nM; at RET WT, 1.12 nM; on RET V804L, 0.657 nM; on RET M918T, 0.921 nM.
The like results for `O=C(CO/N=C1/C(=C2/C(=O)Nc3ccc(F)cc32)Nc2ccccc21)N[C@H]1[C@@H]2CNC[C@@H]21` [Example 19, N-((1R,5S,6s)-3-azabicyclo[3.1.0]hexan-6-yl)-2-(((E)-((Z)-5′-fluoro-2′-oxo-[2,3′-biindolinylidene]-3-ylidene)amino)oxy)acetamide] were, in that order, 3.13 nM, 1.05 nM, 0.419 nM and 1.39 nM.
The matching figures for `O=C1Nc2ccc(F)cc2/C1=C1/Nc2ccccc2/C1=N\OCC(=O)N1C[C@H]2C[C@@H]1CN2` [Example 20, (2Z,3E)-3-((2-((1R,4R)-2,5-diazabicyclo[2.2.1]heptan-2-yl)-2-oxoethoxy)imino)-5′-fluoro-[2,3′-biindolinylidene]-2′-one]: 2.94 nM, 1.88 nM, 1.04 nM and 1.19 nM.
